In patent US7745483B2, “2-Halofuryl-thienyl-3-carboxamides” (Bayer CropScience AG, priority 2004, dated 2010):

Test system: Venturia inaequalis
Test: Venturia test (apple)/protective
Format: in vivo
Details: 240 h, protective, application rate 100 g/ha, evaluation 10 days after inoculation, read-out: Efficacy in %
Protocol: (§1) [table] To produce a suitable preparation of active compound, one part by weight of active compound is mixed with the stated amount of solvent and emulsifier, and the concentrate is diluted with water to the desired concentration. To test for protective activity, young plants are sprayed with the preparation of active compound at the stated application rate. After the spray coating has dried on, the plants are inoculated with an aqueous conidia suspension of the apple scab pathogen Venturia inaequalis and then remain in an incubation cabin at about 20° C. and 100% relative atmospheric humidity for 1 day. The plants are then placed in a greenhouse at about 21° C. and a relative atmospheric humidity of about 90%. Evaluation is carried out 10 days after the inoculation. 0% means an efficacy which corresponds to that of the control, whereas an efficacy of 100% means that no infection is observed.

`CC(C)CC(C)c1ccccc1NC(=O)c1ccsc1I` (stereo not drawn) [drawing 185] and `CC(C)CC(C)c1ccccc1NC(=O)c1ccsc1Br` (stereo not drawn) [drawing 215] are the same in pest or weed control at 100 g/ha: 100% for the first, 100% for the second.

`O=C(Nc1ccccc1-c1ccc(Cl)c(Cl)c1)c1ccsc1I` [drawing 204] and `O=C(Nc1ccccc1-c1ccc(Cl)c(F)c1)c1ccsc1I` [drawing 205] are the same in pest or weed control at 100 g/ha: 100% for the first, 100% for the second.

First: CC(C[Si](C)(C)C)c1ccccc1NC(=O)c1ccoc1I (stereo not drawn) [drawing 206]
Second: CC(CC(C)(C)C)c1ccccc1NC(=O)c1ccoc1I (stereo not drawn) [drawing 186]
The pest or weed control at 100 g/ha of the first is higher: 99% for the first, 94% for the second.

`O=C(Nc1ccccc1-c1ccc(Cl)cc1)c1ccsc1Br` [drawing 217] and `O=C(Nc1ccccc1-c1ccc(Cl)cc1)c1ccsc1I` [drawing 202] are the same in pest or weed control at 100 g/ha: 100% for the first, 100% for the second.

`CC1CC(C)(C)c2cccc(NC(=O)c3ccsc3I)c21` (stereo not drawn) [drawing 211] and `C[Si](C)(C)CCc1ccccc1NC(=O)c1ccsc1I` [drawing 188] are the same in pest or weed control at 100 g/ha: 100% for the first, 100% for the second.

`O=C(Nc1ccccc1-c1ccc(Cl)c(Cl)c1)c1ccsc1Br` [drawing 218] and `O=C(Nc1ccccc1-c1ccc(Cl)c(F)c1)c1ccsc1Br` [drawing 219] are the same in pest or weed control at 100 g/ha: 100% for the first, 100% for the second.

`O=C(Nc1ccccc1-c1ccc(F)c(Cl)c1)c1ccsc1I` [drawing 220] and `O=C(Nc1ccccc1-c1ccc(Br)c(Cl)c1)c1ccsc1I` [drawing 193] are the same in pest or weed control at 100 g/ha: 100% for the first, 100% for the second.

`CC(C)CC(C)c1cc(F)ccc1NC(=O)c1ccsc1I` (stereo not drawn) [drawing 212] and `CC(C)CC(C)c1sccc1NC(=O)c1ccsc1I` (stereo not drawn) [drawing 214] are the same in pest or weed control at 100 g/ha: 100% for the first, 100% for the second.

First: CC(CC(C)(C)C)c1ccccc1NC(=O)c1ccsc1Br (stereo not drawn) [drawing 216]
Second: CC(CC(C)(C)C)c1ccccc1NC(=O)c1ccsc1I (stereo not drawn) [drawing 187]
The pest or weed control at 100 g/ha of the first is lower: 98% for the first, 100% for the second.

Compared with `O=C(Nc1ccc(F)cc1-c1cccc(Cl)c1F)c1ccsc1I` [drawing 196], `O=C(Nc1ccccc1-c1cccc(Cl)c1F)c1ccsc1I` [drawing 195] is lower in pest or weed control at 100 g/ha: 100% for the first, 89% for the second.

Going from `O=C(Nc1ccccc1-c1ccc(Br)cc1)c1ccsc1I` [drawing 203] to `O=C(Nc1ccccc1-c1ccc(Br)c(F)c1)c1ccsc1I` [drawing 192], the pest or weed control at 100 g/ha rises from 91% to 100%.

Going from `O=C(Nc1ccccc1-c1ccc(Br)cc1Cl)c1ccsc1I` [drawing 191] to `O=C(Nc1ccccc1-c1ccc(C(F)(F)F)cc1Cl)c1ccsc1I` [drawing 189], the pest or weed control at 100 g/ha falls from 100% to 97%.

`O=C(Nc1ccccc1-c1ccc(Br)cc1)c1ccoc1I` [drawing 199] and `O=C(Nc1ccccc1-c1ccc(Cl)cc1)c1ccoc1I` [drawing 198] are the same in pest or weed control at 100 g/ha: 100% for the first, 100% for the second.

`CC(C)(C)CCc1cc(F)ccc1NC(=O)c1ccsc1I` [drawing 197] and `O=C(Nc1ccc(F)cc1-c1ccc(Cl)c(Cl)c1)c1ccsc1I` [drawing 209] are the same in pest or weed control at 100 g/ha: 100% for the first, 100% for the second.

Going from `O=C(Nc1ccccc1-c1cccc(Cl)c1Cl)c1ccsc1I` [drawing 194] to `Cc1ccc(-c2ccccc2NC(=O)c2ccsc2I)cc1F` [drawing 210], the pest or weed control at 100 g/ha rises from 98% to 100%.

`C[Si](C)(C)CCc1sccc1NC(=O)c1ccsc1I` [drawing 221] and `CC(C[Si](C)(C)C)c1ccccc1NC(=O)c1ccsc1I` (stereo not drawn) [drawing 207] are the same in pest or weed control at 100 g/ha: 100% for the first, 100% for the second.

First: CO/N=C/c1ccc(-c2ccccc2NC(=O)c2ccsc2I)cc1F [drawing 213]
Second: O=C(Nc1ccccc1-c1ccc(C(F)(F)F)cc1)c1ccsc1I [drawing 208]
The pest or weed control at 100 g/ha of the first is higher: 100% for the first, 99% for the second.

First: O=C(Nc1ccncc1-c1ccc(Cl)c(Cl)c1)c1ccsc1I [drawing 190]
Second: O=C(Nc1ccccc1-c1ccc(Cl)c(Cl)c1)c1ccoc1I [drawing 200]
The pest or weed control at 100 g/ha of the first is lower: 98% for the first, 99% for the second.

For `O=C(Nc1ccccc1-c1ccc(Cl)c(F)c1)c1ccoc1I` [drawing 201], the pest or weed control at 100 g/ha was 100%.

Test system: Puccinia recondita
Test: Puccinia test (wheat)/protective
Format: in vivo
Details: 240 h, protective, application rate 500 g/ha, evaluation 10 days after inoculation, read-out: Efficacy in %
Protocol: [table] To produce a suitable preparation of active compound, 1 part by weight of active compound is mixed with the stated amounts of solvent and emulsifier, and the concentrate is diluted with water to the desired concentration. To test for protective activity, young plants are sprayed with the preparation of active compound at the stated application rate. After the spray coating has dried on, the plants are sprayed with a conidia suspension Puccinia recondita. The plants remain in an incubation cabin at 20° C. and 100% relative atmospheric humidity for 48 hours. The plants are then placed in a greenhouse at a temperature of about 20° C. and a relative atmospheric humidity of 80% to promote the development of rust pustules. Evaluation is carried out 10 days after the inoculation. 0% means an efficacy which corresponds to that of the control, whereas an efficacy of 100% means that no infection is observed.

`CC(C[Si](C)(C)C)c1ccccc1NC(=O)c1ccsc1I` (stereo not drawn) [drawing 276] and `CC(C)CC(C)c1ccccc1NC(=O)c1ccsc1I` (stereo not drawn) [drawing 260] are the same in pest or weed control at 500 g/ha: 100% for the first, 100% for the second.

`O=C(Nc1ccccc1-c1ccc(Br)c(F)c1)c1ccsc1I` [drawing 264] and `O=C(Nc1ccccc1-c1ccc(F)c(Cl)c1)c1ccsc1I` [drawing 286] are the same in pest or weed control at 500 g/ha: 100% for the first, 100% for the second.

In the case of `O=C(Nc1ccccc1-c1ccc(Cl)c(F)c1)c1ccsc1Br` [drawing 285], the pest or weed control at 500 g/ha is reported as 100%.

Test system: Sphaerotheca fuliginea
Test: Sphaerotheca test (cucumber)/protective
Format: in vivo
Details: Podosphaera fuliginea, 168 h, protective, application rate 100 g/ha, evaluation 7 days after inoculation, read-out: Efficacy in %
Protocol: as §1, with “stated amounts” for “stated amount”, “aqueous spore” for “aqueous conidia”, “of Sphaerotheca fuliginea.” for “of the apple scab pathogen Venturia inaequalis and then remain in an incubation cabin at about 20° C. and 100% relative atmospheric humidity for 1 day.”, “about 23°” for “about 21°”, “about 70%.” for “about 90%.”, “out 7” for “out 10”

`O=C(Nc1ccccc1-c1ccc(Br)cc1)c1ccoc1I` [drawing 165] and `O=C(Nc1ccccc1-c1ccc(Cl)cc1)c1ccoc1I` [drawing 164] are the same in pest or weed control at 100 g/ha: 100% for the first, 100% for the second.

`O=C(Nc1ccccc1-c1ccc(Cl)c(F)c1)c1ccsc1Br` [drawing 182] and `O=C(Nc1ccccc1-c1ccc(Cl)c(Cl)c1)c1ccsc1Br` [drawing 181] are the same in pest or weed control at 100 g/ha: 100% for the first, 100% for the second.

Compared with `CC(C)CC(C)c1cc(F)ccc1NC(=O)c1ccsc1I` (stereo not drawn) [drawing 175], `CC(C)CC(C)c1ccccc1NC(=O)c1ccsc1I` (stereo not drawn) [drawing 152] is higher in pest or weed control at 100 g/ha: 97% for the first, 98% for the second.

Going from `C[Si](C)(C)CCc1sccc1NC(=O)c1ccsc1I` [drawing 184] to `CC(C)CC(C)c1sccc1NC(=O)c1ccsc1I` (stereo not drawn) [drawing 177], the pest or weed control at 100 g/ha falls from 100% to 92%.

Going from `CC(CC(C)(C)C)c1ccccc1NC(=O)c1ccsc1Br` (stereo not drawn) [drawing 179] to `CC(CC(C)(C)C)c1ccccc1NC(=O)c1ccsc1I` (stereo not drawn) [drawing 154], the pest or weed control at 100 g/ha rises from 97% to 100%.

`CC(C)(C)CCc1cc(F)ccc1NC(=O)c1ccsc1I` [drawing 163] and `O=C(Nc1ccc(F)cc1-c1cccc(Cl)c1F)c1ccsc1I` [drawing 162] are the same in pest or weed control at 100 g/ha: 100% for the first, 100% for the second.

Going from `O=C(Nc1ccccc1-c1ccc(C(F)(F)F)cc1)c1ccsc1I` [drawing 172] to `O=C(Nc1ccccc1-c1ccc(Br)cc1)c1ccsc1I` [drawing 169], the pest or weed control at 100 g/ha rises from 93% to 100%.

`O=C(Nc1ccccc1-c1cccc(Cl)c1F)c1ccsc1I` [drawing 161] and `O=C(Nc1ccccc1-c1cccc(Cl)c1Cl)c1ccsc1I` [drawing 160] are the same in pest or weed control at 100 g/ha: 100% for the first, 100% for the second.

`O=C(Nc1ccncc1-c1ccc(Cl)c(Cl)c1)c1ccsc1I` [drawing 156] and `O=C(Nc1ccc(F)cc1-c1ccc(Cl)c(Cl)c1)c1ccsc1I` [drawing 173] are the same in pest or weed control at 100 g/ha: 100% for the first, 100% for the second.

Compared with `O=C(Nc1ccccc1-c1ccc(Cl)c(F)c1)c1ccoc1I` [drawing 167], `O=C(Nc1ccccc1-c1ccc(Cl)c(Cl)c1)c1ccoc1I` [drawing 166] is higher in pest or weed control at 100 g/ha: 98% for the first, 100% for the second.

First: O=C(Nc1ccccc1-c1ccc(F)c(Cl)c1)c1ccsc1I [drawing 183]
Second: O=C(Nc1ccccc1-c1ccc(Cl)c(F)c1)c1ccsc1I [drawing 170]
The pest or weed control at 100 g/ha of the first is higher: 100% for the first, 98% for the second.

Compared with `CC(C)CC(C)c1ccccc1NC(=O)c1ccsc1Br` (stereo not drawn) [drawing 178], `CC(CC(C)(C)C)c1ccccc1NC(=O)c1ccoc1I` (stereo not drawn) [drawing 153] is lower in pest or weed control at 100 g/ha: 100% for the first, 98% for the second.

`Cc1ccc(-c2ccccc2NC(=O)c2ccsc2I)cc1F` [drawing 174] and `O=C(Nc1ccccc1-c1ccc(Br)c(F)c1)c1ccsc1I` [drawing 158] are the same in pest or weed control at 100 g/ha: 100% for the first, 100% for the second.

Compared with `CO/N=C/c1ccc(-c2ccccc2NC(=O)c2ccsc2I)cc1F` [drawing 176], `O=C(Nc1ccccc1-c1ccc(Br)c(Cl)c1)c1ccsc1I` [drawing 159] is higher in pest or weed control at 100 g/ha: 98% for the first, 100% for the second.

`O=C(Nc1ccccc1-c1ccc(C(F)(F)F)cc1Cl)c1ccsc1I` [drawing 155] and `O=C(Nc1ccccc1-c1ccc(Br)cc1Cl)c1ccsc1I` [drawing 157] are the same in pest or weed control at 100 g/ha: 100% for the first, 100% for the second.

Going from `CC(C[Si](C)(C)C)c1ccccc1NC(=O)c1ccoc1I` (stereo not drawn) [drawing 171] to `O=C(Nc1ccccc1-c1ccc(Cl)cc1)c1ccsc1I` [drawing 168], the pest or weed control at 100 g/ha falls from 100% to 95%.

In the case of `O=C(Nc1ccccc1-c1ccc(Cl)cc1)c1ccsc1Br` [drawing 180], the pest or weed control at 100 g/ha is reported as 100%.
